Key:
Type in all cases: biochemical
[1] = system: Amy3=Stainzyme Plus L (12L); experiment: amylase storage stability in liquid formulation (pNP release from Ethyliden-blocked-pNPG7); details: base formulation II., 1.5 wt % component (a), storage at 37° C.
Procedure: The storage stability of amylase was assessed at 37° C.
(§1) Base test formulations were manufactured by making base formulations I to V by mixing the components according to Table 1.
Amylases used: Amy1=Stainzyme, Amy2=Amplify, Amy3=Stainzyme Plus L (12L)
(§2) The respective component (a) or comparative compound was added, if applicable, to the respective base formulation in amounts as indicated in Table 1.
The amount of amylase as provided in Table 1 refers to active protein.
(§3) Water was added to accomplish the balance to 100.
Amylase activity at certain points in time as indicated in Table 2 was measured quantitatively by the release of the chromophore para-nitrophenol (pNP) from the substrate (Ethyliden-blocked-pNPG7, Roche Applied Science 10880078103). The alpha-amylase degrades the substrate into smaller molecules and α-glucosidase (Roche Applied Science 11626329103), which is present in excess compared to the amylase, process these smaller products until pNP is released; the release of pNP, measured via an increase of absorption at 405 nm, is directly proportional to the amylase activity of the sample. Amylase standard: Termamyl 120 L (Sigma 3403).
The amylolytic activity values provided were calculated referring to the value determined in the reference formulation at the time 0.
The nomenclature of formulations is as follows: the Roman number before the full stop characterizes the base formulation, the Arabian number the type of compound (A.# compound according to invention (component (a)); B.# comparative compound).

Amy2=Amplify = experiment: as above; parameters: key: % of activity in reference formulation at time 0; details: base formulation V., 2.0 wt % component (a), storage at 37° C.
Procedure: (§4) The storage stability of amylase was assessed at 37° C. Base test formulations were manufactured by making base formulations I to V by mixing the components according to Table 1. Amylases used: Amy1=Stainzyme, Amy2=Amplify, Amy3=Stainzyme Plus L (12L) The respective component (a) or comparative compound was added, if applicable, to the respective base formulation in amounts as indicated in Table 1. The amount of amylase as provided in Table 1 refers to active protein. Water was added to accomplish the balance to 100. […] Amylase activity at certain points in time as indicated in Table 2 was measured quantitatively by the release of the chromophore para-nitrophenol (pNP) from the substrate ([…]-blocked-pNPG7, Roche Applied Science 10880078103). The alpha-amylase degrades the substrate into smaller molecules and α-glucosidase (Roche Applied Science 11626329103), which is present in excess compared to the amylase, process these smaller products until pNP is released; the release of pNP, measured via an increase of absorption at 405 nm, is directly proportional to the amylase activity of the sample. Amylase standard: […] 120 L (Sigma 3403). […] The amylolytic activity values provided were calculated referring to the value determined in the reference formulation at the time 0. The nomenclature of formulations is as follows: the Roman number before the full stop characterizes the base formulation, the Arabian number the type of compound (A.# compound according to invention (component (a)); B.# comparative compound).

Amy1=Stainzyme = experiment: as above; parameters: key: % of activity in reference formulation at time 0; details: base formulation IV., 2.0 wt % component (a), storage at 37° C.
Procedure: as §4

Savinase Ultra 16.0L = molecular target: T1, Savinase Ultra 16.0L (Lederbergia lenta, UniProt P29600); experiment: protease storage stability in liquid formulation (Suc-AAPF-pNA substrate); details: storage at 37° C.
T1 construct: purchased Sigma-Aldrich
T1 sequence (P29600 1-269): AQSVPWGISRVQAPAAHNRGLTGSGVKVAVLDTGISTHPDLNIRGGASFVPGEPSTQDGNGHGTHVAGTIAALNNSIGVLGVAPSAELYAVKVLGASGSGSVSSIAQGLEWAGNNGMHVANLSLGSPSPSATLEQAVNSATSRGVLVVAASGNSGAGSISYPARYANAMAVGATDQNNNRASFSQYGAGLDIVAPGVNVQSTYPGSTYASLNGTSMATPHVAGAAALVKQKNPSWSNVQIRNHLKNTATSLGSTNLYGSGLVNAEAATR
Procedure: as §1
Protease used: (S) Savinase Ultra 16.0L (CAS-No. 9014-01-1, EC-No. 232-752-2) was purchased from Sigma-Aldrich
as §2
The amount of protease as provided in Table 1 refers to active protein.
as §3
Protease activity at certain points in time as indicated in Table 3 was be determined by employing Succinyl-Ala-Ala-Pro-Phe-p-nitroanilide (Suc-AAPF-pNA, short AAPF) as substrate. pNA is cleaved from the substrate molecule by proteolytic cleavage, resulting in release of yellow color of free pNA which was determined by measuring […]. Measurements were done at 20° C.
The proteolytic activity values provided in Table 3 were calculated referring to the value determined in the reference formulation at the time 0.
The nomenclature of formulations is as follows: the Roman number before the full stop characterizes the base formulation, the Arabian number the type of salt (A.#inventive salt (component (a)); B.# comparative compound). Zero (“0”): no salt, but diethylene glycol.

O=C(CC(O)(CC(=O)OCc1ccccc1)C(=O)OCc1ccccc1)OCc1ccccc1 [A.8, Tribenzylcitrate]
amylase activity, referring to reference formulation at time 0 ([1]; 3 d): 100 | amylase activity, referring to reference formulation at time 0 ([1]; 7 d): 95 | amylase activity, referring to reference formulation at time 0 ([1]; 14 d): 90 | amylase activity, referring to reference formulation at time 0 ([1]; 21 d): 83 | amylase activity, referring to reference formulation at time 0 ([1]; 28 d): 81 | amylase activity, referring to reference formulation at time 0 ([1]; 42 d): 71 | amylase activity, referring to reference formulation at time 0 ([1]; T0): 99 | amylase activity, referring to reference formulation at time 0 (Amy2=Amplify; 3 d): 93 | amylase activity, referring to reference formulation at time 0 (Amy2=Amplify; 7 d): 86 | amylase activity, referring to reference formulation at time 0 (Amy2=Amplify; 14 d): 80 | amylase activity, referring to reference formulation at time 0 (Amy2=Amplify; 21 d): 77 | amylase activity, referring to reference formulation at time 0 (Amy2=Amplify; 28 d): 66 | amylase activity, referring to reference formulation at time 0 (Amy2=Amplify; 42 d): 59 | amylase activity, referring to reference formulation at time 0 (Amy2=Amplify; T0): 98 | amylase activity, referring to reference formulation at time 0 (Amy1=Stainzyme; 3 d): 96 | amylase activity, referring to reference formulation at time 0 (Amy1=Stainzyme; 7 d): 92 | amylase activity, referring to reference formulation at time 0 (Amy1=Stainzyme; 14 d): 86 | amylase activity, referring to reference formulation at time 0 (Amy1=Stainzyme; 21 d): 81 | amylase activity, referring to reference formulation at time 0 (Amy1=Stainzyme; 28 d): 70 | amylase activity, referring to reference formulation at time 0 (Amy1=Stainzyme; 42 d): 59 | amylase activity, referring to reference formulation at time 0 (Amy1=Stainzyme; T0): 98 | protease activity, referring to reference formulation at time 0 (Savinase Ultra 16.0L; base formulation II., 1.5 wt % component (a), 3 d): 94 | protease activity, referring to reference formulation at time 0 (Savinase Ultra 16.0L; base formulation II., 1.5 wt % component (a), 7 d): 93 | protease activity, referring to reference formulation at time 0 (Savinase Ultra 16.0L; base formulation II., 1.5 wt % component (a), 14 d): 90 | protease activity, referring to reference formulation at time 0 (Savinase Ultra 16.0L; base formulation II., 1.5 wt % component (a), 21 d): 87 | protease activity, referring to reference formulation at time 0 (Savinase Ultra 16.0L; base formulation II., 1.5 wt % component (a), 28 d): 83 | protease activity, referring to reference formulation at time 0 (Savinase Ultra 16.0L; base formulation II., 1.5 wt % component (a), 42 d): 75 | protease activity, referring to reference formulation at time 0 (Savinase Ultra 16.0L; base formulation II., 1.5 wt % component (a), T0): 100 | protease activity, referring to reference formulation at time 0 (Savinase Ultra 16.0L; base formulation IV., 2.0 wt % component (a), 3 d): 96 | protease activity, referring to reference formulation at time 0 (Savinase Ultra 16.0L; base formulation IV., 2.0 wt % component (a), 7 d): 93 | protease activity, referring to reference formulation at time 0 (Savinase Ultra 16.0L; base formulation IV., 2.0 wt % component (a), 14 d): 88 | protease activity, referring to reference formulation at time 0 (Savinase Ultra 16.0L; base formulation IV., 2.0 wt % component (a), 21 d): 83 | protease activity, referring to reference formulation at time 0 (Savinase Ultra 16.0L; base formulation IV., 2.0 wt % component (a), 28 d): 75 | protease activity, referring to reference formulation at time 0 (Savinase Ultra 16.0L; base formulation IV., 2.0 wt % component (a), 42 d): 68 | protease activity, referring to reference formulation at time 0 (Savinase Ultra 16.0L; base formulation IV., 2.0 wt % component (a), T0): 98 | protease activity, referring to reference formulation at time 0 (Savinase Ultra 16.0L; base formulation V., 2.0 wt % component (a), 3 d): 96 | protease activity, referring to reference formulation at time 0 (Savinase Ultra 16.0L; base formulation V., 2.0 wt % component (a), 7 d): 92 | protease activity, referring to reference formulation at time 0 (Savinase Ultra 16.0L; base formulation V., 2.0 wt % component (a), 14 d): 86 | protease activity, referring to reference formulation at time 0 (Savinase Ultra 16.0L; base formulation V., 2.0 wt % component (a), 21 d): 82 | protease activity, referring to reference formulation at time 0 (Savinase Ultra 16.0L; base formulation V., 2.0 wt % component (a), 28 d): 77 | protease activity, referring to reference formulation at time 0 (Savinase Ultra 16.0L; base formulation V., 2.0 wt % component (a), 42 d): 69 | protease activity, referring to reference formulation at time 0 (Savinase Ultra 16.0L; base formulation V., 2.0 wt % component (a), T0): 100
